Earlier results, collected in paper PMC9147442, “Design, Synthesis, and Evaluation of Linker-Optimised PSMA-Targeting Radioligands” (Pharmaceutics, 2022).

Parameters: method as in PMID 26985056
Conditions: radiotherapy

renal excretion: ~ 50 % IA
Substance: [^177Lu]Lu-PSMA-617
